Experimental findings from the SangsterLogP compilation are described below.

The data set can be described thus: method code SF-AS, from Rouot, B.; Leclerc, G.; Wermuth, C.; Miesch, F.; Schwartz, J. (1977). Structure-activity relations and problems related to the mechanism of action of clonidine.Journal de Pharmacologie, 8(1)95-106.
Usually logP stands for the decadic logarithm of the partition coefficient of the neutral form, usually between octanol and water. The low end stands for a more hydrophilic compound, the high end for a more lipophilic compound. `Oc1cc(Cl)c(NC2=NCCN2)c(Cl)c1` yielded a logP of 1.52.
`COc1cc(OC)c(NC2=NCCN2)cc1Cl` showed a logP of 1.38.
In the case of `Clc1ccc(NC2=NCCN2)c(Cl)c1`, the logP came out at 1.96.
Regarding `c1ccc(NC2=NCCN2)cc1`, the logP is 1.01.
The value for `Cc1cc(Cl)ccc1NC1=NCCN1` was 1.77; that for `Cc1ccc(NC2=NCCN2)c(Cl)c1` was 1.87.
The value for `Cc1cccc(Cl)c1NC1=NCCN1` was 1.41; that for `Fc1cccc(F)c1N=C1NCCN1` was 1.06.
`Cc1ccc(Cl)cc1NC1=NCCN1` gave a logP of 1.8.
Next, `Brc1cccc(Br)c1NC1=NCCN1`: 1.73; `COc1ccc(OC)c(NC2=NCCN2)c1`: 0.97; `FC(F)(F)c1ccccc1NC1=NCCN1`: 1.42.
On to `CC(C)c1cccc(C(C)C)c1NC1=NCCN1`, for which the logP was found to be 3.04.
In the case of `Brc1ccc(NC2=NCCN2)cc1`, the logP worked out at 1.75.
For the compound `Cc1cccc(C)c1NC1=NCCN1`, the logP turned out to be 1.45.
Next, `COc1cc(C)ccc1NC1=NCCN1`: 1.64.
